Results taken from patent US8541573B2, “Substituted sulfonamide compounds” (Gruenenthal GmbH, priority 2008, dated 2013).

Assays:
B1R of rats = molecular target: T1, B1R of rats (Rattus norvegicus, UniProt P97583); test: Functional investigation on the bradykinin 1 receptor (B1R), cell-based fluorescent calcium-mobilization assay (FLIPR/Novostar), rat; settings: 10 μM test substance; CHO K1 cells stably transfected with rat B1R gene; agonist Des-Arg9-bradykinin at EC80; % inhibition compared with maximum achievable inhibition; read-out: B1R antagonism, rat [10 μM] % inhibition
T1 construct: expressed in transfected cells; host or cells: CHO K1 cells
T1 sequence (P97583 1-337): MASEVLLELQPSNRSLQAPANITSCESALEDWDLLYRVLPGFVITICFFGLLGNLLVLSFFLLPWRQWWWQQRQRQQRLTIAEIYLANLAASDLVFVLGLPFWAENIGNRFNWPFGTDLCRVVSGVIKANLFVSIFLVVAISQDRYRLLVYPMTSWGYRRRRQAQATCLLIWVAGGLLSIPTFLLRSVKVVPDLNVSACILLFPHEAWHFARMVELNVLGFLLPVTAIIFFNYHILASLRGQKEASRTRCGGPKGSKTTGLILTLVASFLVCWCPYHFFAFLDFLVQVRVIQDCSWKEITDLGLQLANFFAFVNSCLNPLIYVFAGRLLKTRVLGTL
Method: (§1) The agonistic or antagonistic action of substances can be quantified on the bradykinin 1 receptor (B1R) of the human and rat species with ectopically expressing cell lines (CHO K1 cells) and with the aid of a Ca^2+-sensitive dyestuff (Fluo-4) in a fluorescent imaging plate reader (FLIPR). The figure in % activation is based on the Ca^2+ signal after addition of Lys-Des-Arg^9-bradykinin (0.5 nM) or Des-Arg^9-bradykinin (100 nM). Antagonists lead to a suppression of the Ca^2+ inflow after addition of the agonist. % inhibition compared with the maximum achievable inhibition is stated.
(§2) The agonistic or antagonistic action of substances can be determined on the bradykinin 1 receptor (B1R) of humans and rats by means of a cell-based flourescent calcium-mobilization assay. According to this assay agonist-induced increase of intracellular free Ca^2+ is quantified by means of a Ca^2+-sensitive dye (Fluo-4 type, Molecular Probes Europe BV, Leiden, Netherlands), in a Fluorescent Imaging Plate Reader (FLIPR, Molecular Devices, Sunnyvale, USA) and/or the Novostar (BMG Labtech GmbH, Offenburg, Germany).
(§3) Chinese hamster ovary cells (CHO K1 cells), which are stably transfected with the human B1R gene (hB1R cells) or with the B1R gene of rats (rB1R cells), are used. For functional investigations these cells are seeded into black 96-well plates with a clear bottom (BD Biosciences, Heidelberg, Germany or Greiner, Frickenhausen, Germany) in a density of 20,000-35,000 cells/well. The cells are incubated overnight in a humidified atmosphere at 37° C. and 5% CO2 in culture medium (hB1R cells: Nutrient Mixture Ham's F12, Gibco Invitrogen GmbH, Karlsruhe, Germany or DMEM, Sigma-Aldrich, Taufkirchen, Germany; rB1R cells: D-MEM/F12, Gibco Invitrogen GmbH, Karlsruhe, Germany) with 10 vol. % FBS (foetal bovine serum, Gibco Invitrogen GmbH, Karlsruhe, Germany).
(§4) On the following day the cells are loaded with the Ca^2+-sensitive dye Fluo-4-AM (Molecular Probes Europe BV, Leiden, Netherlands):
(§5) Method A: The medium of the cells is removed and cell plates are incubated with loading solution, which contains 2.13 μM Fluo-4-AM, 2.5 mM probenecid (Sigma-Aldrich, Taufkirchen, Germany), and 10 mM HEPES (Sigma-Aldrich, Taufkirchen, Germany) in HBSS buffer (Hank's buffered saline solution, Gibco Invitrogen GmbH, Karlsruhe, Germany) for 60 minutes at 37° C. After the plates are washed twice with HBSS buffer, HBSS buffer supplemented 0.1% BSA (bovine serum albumin; Sigma-Aldrich, Taufkirchen, Germany), 5.6 mM glucose and 0.05% gelatine (Merck KGaA, Darmstadt, Germany) is added. Cell plates are incubated for at least 20 minutes in the dark at room temperature before they are used for the Ca^2+ measurement in the FLIPR or Novostar.
(§6) Method B: The plates are washed with buffer A (15 mM HEPES, 80 mM NaCl, 5 mM KCl, 1.2 mM CaCl2, 0.7 mM MgSO4, 2 mg/ml glucose, 2.5 mM probenecid) and subsequently loaded with buffer A containing 2.4 μM Fluo-4-AM and 0.025% pluronic F127 (Sigma-Aldrich, Taufkirchen, Germany) for 60 minutes at 37° C. Cell plates are washed twice with buffer A. Then, buffer A supplemented with 0.05% BSA and 0.05% gelatine is added and cell plates are incubated in the dark at room temperature for at least 20 minutes before measurement in the FLIPR or Novostar is started.
(§7) The Ca^2+-dependent fluorescence is measured both before and after the addition of substances (λex=488 nm, λem=540 nm). For quantification of the effect the highest fluorescence intensity (FC, fluorescence counts) over time is given. The FLIPR protocol consists of two substance additions, done within the instrument while continuously monitoring the Ca^2+-dependent fluorescence at 540 nm. When the Novostar was used, one addition had to be done outside the instrument. Test substances (10 μM) are initially pipetted onto the cells and the intracellular Ca^2+ rise is compared with the control (hB1R: Lys-Des-Arg9-bradykinin>=50 nM; rB1R: Des-Arg9-bradykinin>=1 μM). […]

human B1R = molecular target: T2, human B1R (Homo sapiens, UniProt P46663); test: Functional investigation on the bradykinin 1 receptor (B1R), cell-based fluorescent calcium-mobilization assay (FLIPR/Novostar), human; settings: 10 μM test substance; CHO K1 cells stably transfected with human B1R gene; agonist Lys-Des-Arg9-bradykinin at EC80; % inhibition compared with maximum achievable inhibition; read-out: B1R antagonism, human [10 μM] % inhibition
T2 construct: expressed in transfected cells; host or cells: CHO K1 cells
T2 sequence (P46663 1-353): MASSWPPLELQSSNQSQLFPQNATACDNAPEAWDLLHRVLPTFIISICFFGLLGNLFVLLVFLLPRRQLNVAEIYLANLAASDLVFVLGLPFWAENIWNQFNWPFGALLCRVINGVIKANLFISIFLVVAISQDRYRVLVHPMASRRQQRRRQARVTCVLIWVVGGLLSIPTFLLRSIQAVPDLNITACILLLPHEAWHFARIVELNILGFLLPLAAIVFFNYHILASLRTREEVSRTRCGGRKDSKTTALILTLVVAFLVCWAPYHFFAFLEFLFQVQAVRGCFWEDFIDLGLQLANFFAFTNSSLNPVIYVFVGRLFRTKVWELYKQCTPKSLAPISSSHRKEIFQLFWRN
Method: as §1, §2, §3, §4, §5, §6, §7

| SMILES | inhibition at 10 µM (B1R of rats) | inhibition at 10 µM (human B1R) |
| --- | --- | --- |
| COc1cc(C)c(S(=O)(=O)N(C)CCOCC(=O)N2CCC(CNC(=O)Cc3ccccc3)(N3CCN(C)CC3)CC2)c(C)c1 [Example 15, N-((1-(2-(2-(4-methoxy-N,2,6-trimethylphenylsulfonamido)ethoxy)acetyl)-4-(4-methylpiperazin-1-yl)piperidin-4-yl)methyl)-2-phenylacetamide] | 101% | 103% |
| CN1CCN(C2(CNC(=O)c3ccccc3)CCN(C(=O)CC(NS(=O)(=O)c3ccc4ccccc4c3)c3ccccc3)CC2)CC1 (stereo not shown) [Example 16, N-((4-(4-methylpiperazin-1-yl)-1-(3-(naphthalene-2-sulfonamido)-3-phenylpropanoyl)piperidin-4-yl)methyl)benzamide] | 31% | 94% |
| CC(=O)NCC1(N2CCN(c3ccncc3)CC2)CCN(C(=O)COCC2CCc3ccccc3N2S(=O)(=O)c2ccc(Cl)c(Cl)c2)CC1 (stereo not shown) [Example 17, N-((1-(2-((1-(3,4-dichlorophenylsulfonyl)-1,2,3,4-tetrahydroquinolin-2-yl)methoxy)acetyl)-4-(4-(pyridin-4-yl)piperazin-1-yl)piperidin-4-yl)methyl)acetamide] | 101% | 104% |
| CN1CCN(C2(CNC(=O)c3ccccn3)CCN(C(=O)CC(NS(=O)(=O)c3ccc4ccccc4c3)c3ccccc3)CC2)CC1 (stereo not shown) [Example 19, N-((4-(4-methylpiperazin-1-yl)-1-(3-(naphthalene-2-sulfonamido)-3-phenylpropanoyl)piperidin-4-yl)methyl)picolinamide] | 83% | 102% |
| COc1cc(C)c(S(=O)(=O)N2CCCCC2COCC(=O)N2CCC(CNC(C)=O)(N3CCN(c4ccncc4)CC3)CC2)c(C)c1 (stereo not shown) [Example 22, N-((1-(2-((1-(4-methoxy-2,6-dimethylphenylsulfonyl)piperidin-2-yl)methoxy)acetyl)-4-(4-(pyridin-4-yl)piperazin-1-yl)piperidin-4-yl)methyl)acetamide] | 101% | 103% |
| CN1CCN(C2(CNC(=O)c3ccccc3)CCN(C(=O)COCC3CCc4ccccc4N3S(=O)(=O)c3ccc(Cl)c(Cl)c3)CC2)CC1 (stereo not shown) [Example 23, N-((1-(2-((1-(3,4-dichlorophenylsulfonyl)-1,2,3,4-tetrahydroquinolin-2-yl)methoxy)acetyl)-4-(4-methylpiperazin-1-yl)piperidin-4-yl)methyl)benzamide] | 54% | 99% |
| COc1cc(C)c(S(=O)(=O)N(C)CCOCC(=O)N2CCC(CNC(=O)c3ccccc3)(N3CCN(C)CC3)CC2)c(C)c1 [Example 24, N-((1-(2-(2-(4-methoxy-N,2,6-trimethylphenylsulfonamido)ethoxy)acetyl)-4-(4-methylpiperazin-1-yl)piperidin-4-yl)methyl)benzamide] | 101% | 103% |
| COc1cc(C)c(S(=O)(=O)N2CCCCC2COCC(=O)N2CCC(CNC(C)=O)(N3CCN(C)CC3)CC2)c(C)c1 (stereo not shown) [Example 27, N-((1-(2-((1-(4-methoxy-2,6-dimethylphenylsulfonyl)piperidin-2-yl)methoxy)acetyl)-4-(4-methylpiperazin-1-yl)piperidin-4-yl)methyl)acetamide] | 102% | 103% |

Results, then the compound that gave them:

| inhibition at 10 µM (B1R of rats) | inhibition at 10 µM (human B1R) | SMILES |
| --- | --- | --- |
| 82% | 100% | CC(=O)NCC1(N2CCN(c3ccncc3)CC2)CCN(C(=O)CC(NS(=O)(=O)c2ccc3ccccc3c2)c2ccccc2)CC1 (stereo not shown) [Example 14, N-((1-(3-(naphthalene-2-sulfonamido)-3-phenylpropanoyl)-4-(4-(pyridin-4-yl)piperazin-1-yl)piperidin-4-yl)methyl)acetamide] |
| 17% | 97% | CN1CCN(C2(CNC(=O)c3ccccn3)CCN(C(=O)CC3CCCCN3S(=O)(=O)c3cccc(C(F)(F)F)c3)CC2)CC1 (stereo not shown) [Example 18, N-((4-(4-methylpiperazin-1-yl)-1-(2-(1-(3-(trifluoromethyl)phenylsulfonyl)-piperidin-2-yl)acetyl)piperidin-4-yl)methyl)picolinamide] |
| 60% | 91% | CN1CCN(C2(CNC(=O)c3ccccn3)CCN(C(=O)COCC3CCc4ccccc4N3S(=O)(=O)c3ccc(Cl)c(Cl)c3)CC2)CC1 (stereo not shown) [Example 20, N-((1-(2-((1-(3,4-dichlorophenylsulfonyl)-1,2,3,4-tetrahydroquinolin-2-yl)-methoxy)acetyl)-4-(4-methylpiperazin-1-yl)piperidin-4-yl)methyl)picolinamide] |
| 101% | 103% | COc1cc(C)c(S(=O)(=O)N2CCCCC2COCC(=O)N2CCC(CNC(=O)c3ccccn3)(N3CCN(C)CC3)CC2)c(C)c1 (stereo not shown) [Example 21, N-((1-(2-((1-(4-methoxy-2,6-dimethylphenylsulfonyl)piperidin-2-yl)methoxy)acetyl)-4-(4-methylpiperazin-1-yl)piperidin-4-yl)methyl)picolinamide] |
| 101% | 103% | COc1cc(C)c(S(=O)(=O)N(C)CCOCC(=O)N2CCC(CNC(=O)c3ccccn3)(N3CCN(C)CC3)CC2)c(C)c1 [Example 25, N-((1-(2-(2-(4-methoxy-N,2,6-trimethylphenylsulfonamido)ethoxy)acetyl)-4-(4-methylpiperazin-1-yl)piperidin-4-yl)methyl)picolinamide] |
| 45% | 103% | Cc1cc(S(=O)(=O)N2CCCCC2CCC(=O)N2CCC(CNC(=O)c3ccncc3)(N3CCN(C)CC3)CC2)c(C)cc1Cl (stereo not shown) [Example 26, N-((1-(3-(1-(4-chloro-2,5-dimethylphenylsulfonyl)piperidin-2-yl)propanoyl)-4-(4-methylpiperazin-1-yl)piperidin-4-yl)methyl)isonicotinamide] |
